Key:
full length mouse TREX1 = molecular target: T1, full length mouse TREX1 (Mus musculus, UniProt Q91XB0); assay: mTREX1 Biochemical Assay (fluorescence, dsDNA substrate degradation); conditions: biochemical, read-out: mTREX1 IC50
T1 construct: N-terminally His-Tev tagged full length mouse TREX1; made in house; host or cells: E. coli
T1 sequence (Q91XB0 1-314): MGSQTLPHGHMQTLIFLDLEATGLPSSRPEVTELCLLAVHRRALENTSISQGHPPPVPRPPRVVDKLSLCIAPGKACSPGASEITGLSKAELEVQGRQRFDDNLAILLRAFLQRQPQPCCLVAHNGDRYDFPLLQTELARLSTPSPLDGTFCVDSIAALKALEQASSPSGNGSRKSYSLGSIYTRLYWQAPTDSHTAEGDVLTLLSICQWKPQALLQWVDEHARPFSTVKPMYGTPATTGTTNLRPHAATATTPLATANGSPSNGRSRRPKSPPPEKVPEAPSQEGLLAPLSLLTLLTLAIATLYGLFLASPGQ
How it was run: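 Reaction run 18 h at 25° C. with 60 nM TEX615/quencher-labelled dsDNA and 6 pM mouse TREX1 in Tris buffer (pH 7.4, 5 mM MgCl2, 1.0% DMSO), enzyme having sat 4 h with compound across 10 concentrations. EDTA quench; substrate degradation measured as fluorescence increase.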

[1] = molecular target: T2, human TREX2 (residues M44-A279) (Homo sapiens, UniProt Q9BQ50); assay: hTREX2 Biochemical Assay (fluorescence, dsDNA substrate degradation); conditions: biochemical selectivity for hTREX1 vs hTREX2
T2 construct: human TREX2 (residues M44-A279, expressed in E. coli); made in house; host or cells: E. coli
T2 sequence (Q9BQ50 44-279 isoform Q9BQ50-1): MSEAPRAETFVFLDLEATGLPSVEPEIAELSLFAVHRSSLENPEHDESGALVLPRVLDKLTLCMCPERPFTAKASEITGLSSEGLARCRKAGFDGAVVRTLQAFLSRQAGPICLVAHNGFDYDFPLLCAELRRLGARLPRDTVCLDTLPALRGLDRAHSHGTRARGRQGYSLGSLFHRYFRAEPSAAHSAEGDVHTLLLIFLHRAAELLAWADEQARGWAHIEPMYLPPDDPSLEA
How it was run: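 Fluorogenic dsDNA degradation read at 615 nm (570 nm excitation) after EDTA quench. Final 60 nM substrate, 50 pM His-Tev-tagged enzyme, 5 mM MgCl2, pH 7.4, 1.0% DMSO; 4 h compound–enzyme preincubation then 18 h reaction, both 25 °C; 10-point titration.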

| Structure (SMILES) | IC50 (full length mouse TREX1) [nM] | hTREX1 vs hTREX2 selectivity [1] |
| --- | --- | --- |
| CC(c1nc(C(=O)Nc2cnoc2)c(O)c(=O)n1C)C(c1cnn(CC2CC2)c1)c1ccccc1C#N (single isomer, unassigned) [Example 23 D1E2] | 1 to 10 | C (C = >50 fold selective for hTREX1) |
| CC(c1nc(C(=O)Nc2cnoc2)c(O)c(=O)n1C)C(c1cnn(C)c1)c1cc(Cl)ccc1C#N (single isomer, unassigned) [Example 26 D1E2] | 1 to 10 |  |
| Cc1cncc(C(c2ccccc2C#N)C(C)c2nc(C(=O)Nc3cnoc3)c(O)c(=O)n2C)n1 (single isomer, unassigned) [Example 53 D1E2] | 1 to 10 | C (C = >50 fold selective for hTREX1) |
| Cc1nn(C)cc1C(c1cc(F)ccc1C#N)C(C)c1nc(C(=O)Nc2cnoc2)c(O)c(=O)n1C (single isomer, unassigned) [Example 57 D1E2] | 1 to 10 | C (C = >50 fold selective for hTREX1) |
| CC(c1nc(C(=O)Nc2cnoc2)c(O)c(=O)n1C)C(c1cnn(C)c1)c1ccccc1Cl (single isomer, unassigned) [Example 77 D1E1] | 1 to 10 | C (C = >50 fold selective for hTREX1) |
| Cc1nn(C)c(C)c1C(c1ccccc1C#N)C(C)c1nc(C(=O)Nc2cnoc2)c(O)c(=O)n1C (single isomer, unassigned) [Example 78 D1E1] | 1 to 10 |  |
| Cc1ncc(C(c2ccccc2C#N)C(C)c2nc(C(=O)Nc3cnoc3)c(O)c(=O)n2C)nc1C (single isomer, unassigned) [Example 81 D1E2] | 1 to 10 | C (C = >50 fold selective for hTREX1) |
| CC(c1nc(C(=O)Nc2cnoc2)c(O)c(=O)n1C)C(c1ccccc1C#N)c1cn(C)nc1F (single isomer, unassigned) [Example 91 D1E1] | < 1 | B (B = 25 to 50-fold selective for hTREX1) |
| CC(c1nc(C(=O)Nc2cnoc2)c(O)c(=O)n1C)C(c1cnn(C(C)C)c1)c1ccccc1C#N (single isomer, unassigned) [Example 105 D1E2] | 1 to 10 | B (B = 25 to 50-fold selective for hTREX1) |
| Cc1cc(C(c2cc(F)ccc2C#N)C(C)c2nc(C(=O)Nc3cnoc3)c(O)c(=O)n2C)n(C)n1 (single isomer, unassigned) [Example 111 D1E2] | 1 to 10 | B (B = 25 to 50-fold selective for hTREX1) |
| Cc1cnc(C(c2cc(F)ccc2C#N)C(C)c2nc(C(=O)Nc3cnoc3)c(O)c(=O)n2C)cn1 (single isomer, unassigned) [Example 115 D1E2] | 1 to 10 | B (B = 25 to 50-fold selective for hTREX1) |
| Cc1ncc(C(c2cc(F)ccc2C#N)C(C)c2nc(C(=O)Nc3cnoc3)c(O)c(=O)n2C)nc1C (single isomer, unassigned) [Example 124 D1E2] | 1 to 10 | B (B = 25 to 50-fold selective for hTREX1) |
| Cc1ncc(C(c2ccccc2Cl)C(C)c2nc(C(=O)Nc3cnoc3)c(O)c(=O)n2C)nc1C (single isomer, unassigned) [Example 125 D1E2] | 1 to 10 | B (B = 25 to 50-fold selective for hTREX1) |
| CCn1c(C(C)C(c2cnn(C)c2)c2ccccc2C#N)nc(C(=O)Nc2cnoc2)c(O)c1=O (single isomer, unassigned) [Example 149 D1E2] | 1 to 10 | C (C = >50 fold selective for hTREX1) |

The next lines start with the values.

| IC50 (full length mouse TREX1) [nM] | hTREX1 vs hTREX2 selectivity [1] | Structure (SMILES) |
| --- | --- | --- |
| 1 to 10 | C (C = >50 fold selective for hTREX1) | CC(c1nc(C(=O)Nc2cnoc2)c(O)c(=O)n1C)C(c1cnn(C)c1)c1ccccc1C#N (single isomer, unassigned) [Example 2 D1E1] |
| < 1 | C (C = >50 fold selective for hTREX1) | CC(c1nc(C(=O)Nc2cnoc2)c(O)c(=O)n1C)C(c1ccccc1C#N)c1cn(C)nc1C#N (single isomer, unassigned) [Example 10 D1E1] |
| < 1 | C (C = >50 fold selective for hTREX1) | CCn1cc(C(c2ccccc2C#N)C(C)c2nc(C(=O)Nc3cnoc3)c(O)c(=O)n2C)cn1 (single isomer, unassigned) [Example 13 D1E1] |
| 1 to 10 | C (C = >50 fold selective for hTREX1) | CC(c1nc(C(=O)Nc2cnoc2)c(O)c(=O)n1C)C(c1cnn(C)c1)c1cc(F)ccc1C#N (single isomer, unassigned) [Example 14 D1E2] |
| < 1 | C (C = >50 fold selective for hTREX1) | CCn1cc(C(c2ccc(F)cc2C#N)C(C)c2nc(C(=O)Nc3cnoc3)c(O)c(=O)n2C)cn1 (single isomer, unassigned) [Example 16 D1E1] |
| < 1 |  | CCn1cc(C(c2cc(F)ccc2C#N)C(C)c2nc(C(=O)Nc3cnoc3)c(O)c(=O)n2C)cn1 (single isomer, unassigned) [Example 17 D1E2] |
| 1 to 10 |  | CC(c1nc(C(=O)Nc2cnoc2)c(O)c(=O)n1C)C(c1cnn(CC(F)(F)F)c1)c1ccccc1C#N (single isomer, unassigned) [Example 22 D1E1] |
| < 1 |  | CC(c1nc(C(=O)Nc2cnoc2)c(O)c(=O)n1C)C(c1cnn(C(F)F)c1)c1ccccc1C#N (single isomer, unassigned) [Example 38 D1E1] |
| < 1 | C (C = >50 fold selective for hTREX1) | Cc1nc(C)c(C(c2ccccc2C#N)C(C)c2nc(C(=O)Nc3cnoc3)c(O)c(=O)n2C)nc1C (single isomer, unassigned) [Example 122 D1E1] |
| < 1 | C (C = >50 fold selective for hTREX1) | C[C@H](c1nc(C(=O)Nc2cnoc2)c(O)c(=O)n1C)[C@@H](c1cc(F)ccc1C#N)c1cn(C)nc1C#N [Example 59 D1E2] |

Reference: US20240246946A1, “MODULATORS OF TREX1” (Constellation Pharmaceuticals, Inc., priority 2021, published 2024)
